Read-outs that look alike come from different tables or passages of the source.
Columns and labels:
Assay in all cases: biochemical
Parameters in all cases: KINOMEscan active site-directed competition binding assay (DiscoveRx), 456 kinases, per cent of control at 300 nM
Settings in all cases: read-out: Percent of Control (%)
[1] = target: PAK3 (Homo sapiens, UniProt O75914)
Outline: (§1)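 Active site-directed competition binding (KINOMEscan) across a 456-kinase panel, compounds tested at 300 nmol/L.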

[2] = target: FER (Homo sapiens, UniProt P16591)
Outline: as §1

[3] = target: SGK3 (Homo sapiens, UniProt Q96BR1)
Outline: as §1

[4] = target: T1, AMPK-alpha1 (Homo sapiens, UniProt Q13131)
T1 construct: gene PRKAA1
Outline: as §1

[5] = target: T2, PFCDPK1(P.falciparum) (Plasmodium falciparum, UniProt P62344)
T2 construct: gene CDPK1
Outline: as §1

[6] = target: AKT2 (Homo sapiens, UniProt P31751)
Outline: as §1

[7] = target: T3, MINK (Homo sapiens, UniProt Q8N4C8)
T3 construct: gene MINK1
Outline: as §1

[8] = target: ROS1 (Homo sapiens, UniProt P08922)
Outline: as §1

[9] = target: SRPK2 (Homo sapiens, UniProt P78362)
Outline: as §1

[10] = target: T4, MEK1 (Homo sapiens, UniProt Q02750)
T4 construct: gene MAP2K1
Outline: as §1

[11] = target: TTK (Homo sapiens, UniProt P33981)
Outline: as §1

[12] = target: DYRK2 (Homo sapiens, UniProt Q92630)
Outline: as §1

[13] = target: T5, MLK3 (Homo sapiens, UniProt Q16584)
T5 construct: gene MAP3K11
Outline: as §1

[14] = target: MAP4K3 (Homo sapiens, UniProt Q8IVH8)
Outline: as §1

[15] = target: TLK1 (Homo sapiens, UniProt Q9UKI8)
Outline: as §1

[16] = target: NLK (Homo sapiens, UniProt Q9UBE8)
Outline: as §1

[17] = target: T6, YANK2 (Homo sapiens, UniProt Q9NY57)
T6 construct: gene STK32B
Outline: as §1

[18] = target: T7, BRK (Homo sapiens, UniProt Q13882)
T7 construct: gene PTK6
Outline: as §1

[19] = target: KIT(A829P) (Homo sapiens, UniProt P10721, A829P)
Outline: as §1

[20] = target: T8, TRKA (Homo sapiens, UniProt P04629)
T8 construct: gene NTRK1
Outline: as §1

[21] = target: T9, MST4 (Homo sapiens, UniProt Q9P289)
T9 construct: gene STK26
Outline: as §1

[22] = target: T10, JNK3 (Homo sapiens, UniProt P53779)
T10 construct: gene MAPK10
Outline: as §1

T7 sequence (Q13882 whole entry): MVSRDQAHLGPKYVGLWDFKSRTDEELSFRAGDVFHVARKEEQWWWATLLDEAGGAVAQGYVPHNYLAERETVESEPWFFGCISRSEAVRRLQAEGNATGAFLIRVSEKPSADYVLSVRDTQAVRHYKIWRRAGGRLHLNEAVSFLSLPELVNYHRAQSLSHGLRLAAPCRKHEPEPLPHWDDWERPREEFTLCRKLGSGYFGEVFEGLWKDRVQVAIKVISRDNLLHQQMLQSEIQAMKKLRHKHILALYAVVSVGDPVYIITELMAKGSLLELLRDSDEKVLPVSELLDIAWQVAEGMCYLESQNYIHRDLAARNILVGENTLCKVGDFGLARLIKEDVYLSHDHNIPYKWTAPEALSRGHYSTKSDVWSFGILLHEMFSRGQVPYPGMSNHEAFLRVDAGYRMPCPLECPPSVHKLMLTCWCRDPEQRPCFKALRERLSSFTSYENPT
Sequence of DYRK2 (Q92630 whole entry): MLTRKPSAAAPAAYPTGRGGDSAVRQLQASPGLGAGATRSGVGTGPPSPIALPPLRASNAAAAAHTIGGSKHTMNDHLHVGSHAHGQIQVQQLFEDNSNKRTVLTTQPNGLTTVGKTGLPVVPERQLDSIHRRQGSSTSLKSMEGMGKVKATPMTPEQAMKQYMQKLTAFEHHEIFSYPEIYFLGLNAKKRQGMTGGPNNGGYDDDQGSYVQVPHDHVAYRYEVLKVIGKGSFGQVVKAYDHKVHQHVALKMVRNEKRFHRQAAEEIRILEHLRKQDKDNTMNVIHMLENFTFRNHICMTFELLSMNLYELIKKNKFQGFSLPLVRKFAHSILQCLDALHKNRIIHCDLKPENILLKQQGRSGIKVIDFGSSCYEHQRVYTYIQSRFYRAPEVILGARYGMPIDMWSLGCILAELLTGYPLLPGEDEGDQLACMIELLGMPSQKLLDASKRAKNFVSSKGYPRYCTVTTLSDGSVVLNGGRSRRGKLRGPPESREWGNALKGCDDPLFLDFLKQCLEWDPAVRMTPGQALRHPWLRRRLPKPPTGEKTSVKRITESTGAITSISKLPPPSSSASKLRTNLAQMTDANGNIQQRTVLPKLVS
T10 sequence (P53779 whole entry): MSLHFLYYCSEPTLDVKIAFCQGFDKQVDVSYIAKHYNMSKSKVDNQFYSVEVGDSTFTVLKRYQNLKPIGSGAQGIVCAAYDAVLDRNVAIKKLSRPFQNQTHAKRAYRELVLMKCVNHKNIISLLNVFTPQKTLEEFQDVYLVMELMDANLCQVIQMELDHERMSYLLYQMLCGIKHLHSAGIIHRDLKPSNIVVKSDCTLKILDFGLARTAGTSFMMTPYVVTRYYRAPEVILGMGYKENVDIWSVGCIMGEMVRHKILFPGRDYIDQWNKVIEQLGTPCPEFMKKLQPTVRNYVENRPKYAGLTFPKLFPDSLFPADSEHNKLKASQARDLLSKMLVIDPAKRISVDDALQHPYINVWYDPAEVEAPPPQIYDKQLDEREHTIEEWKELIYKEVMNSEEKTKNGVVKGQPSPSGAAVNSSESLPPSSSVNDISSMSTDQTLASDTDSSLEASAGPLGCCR
Sequence of FER (P16591 whole entry): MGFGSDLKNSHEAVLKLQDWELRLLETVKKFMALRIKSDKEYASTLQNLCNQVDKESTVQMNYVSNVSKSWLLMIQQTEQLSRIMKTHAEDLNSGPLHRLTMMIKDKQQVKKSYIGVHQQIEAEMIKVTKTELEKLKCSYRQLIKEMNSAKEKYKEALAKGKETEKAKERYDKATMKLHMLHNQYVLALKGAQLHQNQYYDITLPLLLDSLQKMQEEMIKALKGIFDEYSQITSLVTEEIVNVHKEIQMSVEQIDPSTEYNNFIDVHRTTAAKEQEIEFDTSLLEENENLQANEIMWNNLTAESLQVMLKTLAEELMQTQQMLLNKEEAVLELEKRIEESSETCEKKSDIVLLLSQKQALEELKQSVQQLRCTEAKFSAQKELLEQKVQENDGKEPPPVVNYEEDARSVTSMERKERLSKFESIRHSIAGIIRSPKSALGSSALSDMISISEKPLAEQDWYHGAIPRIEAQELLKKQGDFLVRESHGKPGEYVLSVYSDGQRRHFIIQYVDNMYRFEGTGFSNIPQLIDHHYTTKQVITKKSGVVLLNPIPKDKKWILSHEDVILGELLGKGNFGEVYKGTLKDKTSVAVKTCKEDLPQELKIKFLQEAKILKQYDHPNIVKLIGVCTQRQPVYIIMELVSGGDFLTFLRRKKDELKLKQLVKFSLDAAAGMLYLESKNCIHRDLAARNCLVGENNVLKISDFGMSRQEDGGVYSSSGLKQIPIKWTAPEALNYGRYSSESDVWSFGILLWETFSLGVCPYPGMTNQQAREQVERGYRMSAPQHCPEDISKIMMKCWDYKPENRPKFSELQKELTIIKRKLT
Sequence of TLK1 (Q9UKI8 whole entry): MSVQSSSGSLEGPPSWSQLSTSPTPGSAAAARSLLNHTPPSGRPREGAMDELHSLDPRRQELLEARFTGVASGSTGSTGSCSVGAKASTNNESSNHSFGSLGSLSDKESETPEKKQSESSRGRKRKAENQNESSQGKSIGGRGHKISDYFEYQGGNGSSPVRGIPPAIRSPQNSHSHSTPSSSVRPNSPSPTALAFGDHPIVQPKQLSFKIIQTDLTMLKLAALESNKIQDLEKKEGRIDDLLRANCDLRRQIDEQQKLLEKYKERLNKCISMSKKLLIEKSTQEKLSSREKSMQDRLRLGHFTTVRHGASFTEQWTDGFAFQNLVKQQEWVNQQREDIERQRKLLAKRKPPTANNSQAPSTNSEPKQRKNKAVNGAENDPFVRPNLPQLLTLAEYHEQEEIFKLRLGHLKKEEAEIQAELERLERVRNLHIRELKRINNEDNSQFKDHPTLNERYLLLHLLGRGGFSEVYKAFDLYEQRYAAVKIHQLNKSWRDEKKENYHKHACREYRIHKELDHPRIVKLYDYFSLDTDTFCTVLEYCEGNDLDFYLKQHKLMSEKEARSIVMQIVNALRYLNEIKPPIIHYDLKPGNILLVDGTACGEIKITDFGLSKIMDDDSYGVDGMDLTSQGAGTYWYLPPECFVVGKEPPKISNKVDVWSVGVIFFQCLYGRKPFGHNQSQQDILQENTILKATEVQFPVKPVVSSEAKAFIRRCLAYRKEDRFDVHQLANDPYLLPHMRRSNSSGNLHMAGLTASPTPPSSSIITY
Sequence of SRPK2 (P78362 whole entry): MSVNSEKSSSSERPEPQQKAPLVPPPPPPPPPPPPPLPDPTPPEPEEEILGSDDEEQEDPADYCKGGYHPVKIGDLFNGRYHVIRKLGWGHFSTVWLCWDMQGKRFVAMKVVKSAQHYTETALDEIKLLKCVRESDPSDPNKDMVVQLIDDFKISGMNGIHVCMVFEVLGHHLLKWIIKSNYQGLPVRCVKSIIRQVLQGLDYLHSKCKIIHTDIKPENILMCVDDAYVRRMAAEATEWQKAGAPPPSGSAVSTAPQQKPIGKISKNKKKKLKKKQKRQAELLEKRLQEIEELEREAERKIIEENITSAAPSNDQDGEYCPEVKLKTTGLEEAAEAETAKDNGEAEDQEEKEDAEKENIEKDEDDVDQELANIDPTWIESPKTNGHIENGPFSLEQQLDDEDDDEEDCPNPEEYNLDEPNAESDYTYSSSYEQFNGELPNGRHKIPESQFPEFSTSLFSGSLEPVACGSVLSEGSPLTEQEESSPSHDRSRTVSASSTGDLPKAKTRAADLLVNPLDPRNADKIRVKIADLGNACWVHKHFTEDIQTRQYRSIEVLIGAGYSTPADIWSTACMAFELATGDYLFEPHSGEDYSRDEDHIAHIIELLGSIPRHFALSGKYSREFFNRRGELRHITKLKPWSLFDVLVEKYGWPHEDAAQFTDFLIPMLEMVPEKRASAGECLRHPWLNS
T6 sequence (Q9NY57 whole entry): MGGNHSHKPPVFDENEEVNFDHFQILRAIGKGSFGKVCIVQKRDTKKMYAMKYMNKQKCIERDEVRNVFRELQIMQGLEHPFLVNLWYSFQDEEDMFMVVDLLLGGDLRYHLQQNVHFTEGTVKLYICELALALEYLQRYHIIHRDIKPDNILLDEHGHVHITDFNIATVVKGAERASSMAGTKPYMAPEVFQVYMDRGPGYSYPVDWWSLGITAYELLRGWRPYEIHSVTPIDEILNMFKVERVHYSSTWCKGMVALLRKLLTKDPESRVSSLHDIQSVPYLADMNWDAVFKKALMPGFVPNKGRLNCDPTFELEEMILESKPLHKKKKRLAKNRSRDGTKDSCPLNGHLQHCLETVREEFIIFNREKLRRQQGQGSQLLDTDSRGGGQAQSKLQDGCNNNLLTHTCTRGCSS
Sequence of NLK (Q9UBE8 whole entry): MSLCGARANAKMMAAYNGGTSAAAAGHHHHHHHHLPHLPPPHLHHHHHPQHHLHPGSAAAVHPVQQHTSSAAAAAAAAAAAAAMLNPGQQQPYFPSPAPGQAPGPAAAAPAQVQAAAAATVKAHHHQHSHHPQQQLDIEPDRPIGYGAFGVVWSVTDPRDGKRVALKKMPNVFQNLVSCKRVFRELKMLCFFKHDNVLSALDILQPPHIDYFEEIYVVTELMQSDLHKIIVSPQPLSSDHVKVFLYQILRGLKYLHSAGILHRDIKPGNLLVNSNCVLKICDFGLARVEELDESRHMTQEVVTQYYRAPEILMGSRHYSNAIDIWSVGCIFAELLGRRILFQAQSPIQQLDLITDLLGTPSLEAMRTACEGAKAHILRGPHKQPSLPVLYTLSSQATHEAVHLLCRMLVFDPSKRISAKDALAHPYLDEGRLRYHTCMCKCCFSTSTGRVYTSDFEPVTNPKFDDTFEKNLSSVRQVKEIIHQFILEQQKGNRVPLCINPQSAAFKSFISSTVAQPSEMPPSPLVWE

O=C(/C=C/c1cnccc1-c1ccc(F)cc1)Nc1ccc(CCc2nnco2)cc1 [T-418, (2E)-3-(4-(4-fluorophenyl)pyridin-3-yl)-N-(4-(2-(1,3,4-oxadiazol-2-yl)ethyl)phenyl)acrylamide]
remaining binding at 0.3 µM ([1]; sheet T-418): 93% | remaining binding at 0.3 µM ([2]; sheet T-418): 98% | remaining binding at 0.3 µM ([3]; sheet T-418): 62% | remaining binding at 0.3 µM ([4]; sheet T-418): 100% | remaining binding at 0.3 µM ([5]; sheet T-418): 100% | remaining binding at 0.3 µM ([6]; sheet T-418): 100% | remaining binding at 0.3 µM ([7]; sheet T-418): 80% | remaining binding at 0.3 µM ([8]; sheet T-418): 100% | remaining binding at 0.3 µM ([9]; sheet T-418): 50% | remaining binding at 0.3 µM ([10]; sheet T-418): 100% | remaining binding at 0.3 µM ([11]; sheet T-418): 90% | remaining binding at 0.3 µM ([12]; sheet T-418): 100% | remaining binding at 0.3 µM ([13]; sheet T-418): 94% | remaining binding at 0.3 µM ([14]; sheet T-418): 82% | remaining binding at 0.3 µM ([15]; sheet T-418): 100% | remaining binding at 0.3 µM ([16]; sheet T-418): 98% | remaining binding at 0.3 µM ([17]; sheet T-418): 78% | remaining binding at 0.3 µM ([18]; sheet T-418): 87% | remaining binding at 0.3 µM ([19]; sheet T-418): 100% | remaining binding at 0.3 µM ([20]; sheet T-418): 92% | remaining binding at 0.3 µM ([21]; sheet T-418): 63% | remaining binding at 0.3 µM ([22]; sheet T-418): 94%

Cc1ncccc1Oc1sc(C(N)=O)c2c1-c1c(cnn1C)CC2 [T-474, 1-methyl-8-((2-methylpyridin-3-yl)oxy)-4,5-dihydro-1H-thieno[3,4-g]indazole-6-carboxamide]
remaining binding at 0.3 µM [1]: 100% | remaining binding at 0.3 µM [2]: 90% | remaining binding at 0.3 µM [3]: 61% | remaining binding at 0.3 µM [4]: 100% | remaining binding at 0.3 µM [5]: 100% | remaining binding at 0.3 µM [6]: 100% | remaining binding at 0.3 µM [7]: 100% | remaining binding at 0.3 µM [8]: 100% | remaining binding at 0.3 µM [9]: 100% | remaining binding at 0.3 µM [10]: 100% | remaining binding at 0.3 µM [11]: 97% | remaining binding at 0.3 µM [12]: 100% | remaining binding at 0.3 µM [13]: 97% | remaining binding at 0.3 µM [14]: 100% | remaining binding at 0.3 µM [15]: 100% | remaining binding at 0.3 µM [16]: 100% | remaining binding at 0.3 µM [17]: 100% | remaining binding at 0.3 µM [18]: 100% | remaining binding at 0.3 µM [19]: 99% | remaining binding at 0.3 µM [20]: 95% | remaining binding at 0.3 µM [21]: 64% | remaining binding at 0.3 µM [22]: 97%

Reference: publication PMC5862592, “CDK8/19 inhibition induces premature G1/S transition and ATR-dependent cell death in prostate cancer cells” (Oncotarget, 2018)
